Test [1] deals with T1, NFAg31A (also printed NFEg31A), product of ORF15963.
T1 construct: 960 aa ORF without 30 aa signal peptide (primer-derived start M-VKHENFKK, end REWRI), incl; C-terminal DUF5100; 6xHis kept, printed C-terminal (but reverse primer holds a stop, so probably N-terminal pET-28a tag); E. coli BL21(DE3)
Briefly: HPAEC-PAD of released glucose, Michaelis-Menten fit. The test is classed as biochemical. The note with it: pH 7.0, 45 ℃, 15 min, 0.25 µM enzyme. An excerpt:
HPAEC-PAD of released glucose, Michaelis-Menten fit on NFAg31A (also printed NFEg31A), product of ORF15963

Test [2] shares this test system. The test is described as follows: p-nitrophenol release at […] nm, Michaelis-Menten fit. The note with it: pH 7.0, 45 ℃, 15 min, 0.25 µM enzyme. The format is biochemical.

In general, Km refers to the concentration of substrate that gives half-maximal velocity.

On to `OC[C@H]1O[C@H](O[C@H]2[C@H](O)[C@@H](CO)OC(O)[C@@H]2O)[C@H](O)[C@@H](O)[C@@H]1O` (stereo partly shown) [Nigerose], for which the Km in test [1] was found to be 19.3 ± 2.5 mM.
Same read-out and setting: the figure for `OC[C@H]1O[C@H](O[C@H]2[C@H](O)[C@@H](O)C(O)O[C@@H]2CO)[C@H](O)[C@@H](O)[C@@H]1O` (stereo partly shown) [Maltose] is 11.5 ± 0.7 mM.
For `O=[N+]([O-])c1ccc(O[C@H]2O[C@H](CO)[C@@H](O)[C@H](O)[C@H]2O)cc1` [pNPαG, p-Nitrophenyl-α-D-glucopyranoside], the Michaelis-Menten constant (Km) in test [2] was 0.55 ± 0.06 mM.
With `OC[C@H]1O[C@H](O[C@H]2C(O)O[C@H](CO)[C@@H](O)[C@@H]2O)[C@H](O)[C@@H](O)[C@@H]1O` (stereo partly shown) [Kojibiose], in test [1], the Michaelis-Menten constant (Km) is 3.9 ± 0.3 mM.

The values are drawn from PMC10268404, “Insight into broad substrate specificity and synergistic contribution of a fungal α-glucosidase in Chinese Nong-flavor daqu” (Microbial Cell Factories, 2023).
